{
  "source": "patent US20220348565A1",
  "about": "“PHARMACEUTICAL COMPOUNDS” (SENTINEL ONCOLOGY LIMITED, priority 2019, published 2022)",
  "key": {"[1]": {"test": "Chiral stability (interconversion) of isolated atropisomers on heating, chiral HPLC", "format": "physicochemical", "settings": "for % ee of sample @ 40° C. / % ee sample @ 80° C.: EtOH solution, listed as A-2", "experimental": "Stability studies were carried out on the isolated atropisomers, atropisomers A-1 and A-2. To assess the interconversion of atropisomer A-1 and atropisomer A-2 chiral stability was monitored at 40° C. and 80° C. […] 1. 2×1 mg of pure atropisomer was dissolved in 1 mL of EtOH in a sealed-dram vial. 2. One set of vials was heated at 40° C. and another set at 80° C. 3. […] 4. Analysis was carried out at the following timepoints: 0 h, 24 h, 48 h, 72 h, 96 h and 240 h for the samples kept at 40° C. and 24 h, 96 h and 240 h for the samples kept at 80° C. using Chiral HPLC method 5"}, "PLK1 catalytic domain": {"biological_target": "T1, PLK1 catalytic domain (Homo sapiens, UniProt P53350)", "T1 construct": "purchased DiscoverX; host or cells: T7 phage in E. coli (BL21-derived) or HEK-293", "T1 sequence (P53350 53-305 limits assumed)": "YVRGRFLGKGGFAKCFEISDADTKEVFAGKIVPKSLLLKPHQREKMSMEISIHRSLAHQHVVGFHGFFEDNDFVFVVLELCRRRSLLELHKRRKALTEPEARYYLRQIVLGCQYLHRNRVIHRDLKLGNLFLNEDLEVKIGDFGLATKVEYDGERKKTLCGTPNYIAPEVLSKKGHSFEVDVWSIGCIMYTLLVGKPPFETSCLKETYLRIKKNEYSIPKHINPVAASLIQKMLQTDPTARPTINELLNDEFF", "test": "DiscoverX KinomeScreen competition binding assay, PLK1", "settings": "read-out: % Ctrl @ 3 μM", "experimental": "Atropisomer A-2 has been tested for off-target activity against a panel of ninety-seven kinases distributed across the kinome at a concentration of 3 μM using the DiscoverX KinomeScreen assay. The DiscoverX KinomeScreen assay is a site-directed competition binding assay which measures the binding affinity of a compound to a kinase, by use of a solid supported control compound which can bind or capture the kinases in solution. In the absence of a kinase-inhibitor test compound, all of the kinase will bind to the solid support. If a kinase-inhibitor test compound is added to the assay mix, the amount of kinase binding to the solid support will be reduced, the extent of reduction being dependent on the potency of the test compound as a kinase inhibitor. […] For most assays, kinase-tagged T7 phage strains were grown in parallel in 24-well blocks in an E. coli host derived from the BL21 strain. […] The kinase concentration in the eluates was measured by qPCR. […] The strength of binding of the test molecule to the kinase can be expressed as the percent control (% Ctrl) The compound(s) were screened at 3000 nM concentration, and results for primary screen binding interactions are reported as ‘% Ctrl’, where lower numbers indicate stronger hits in the matrix on the following page(s). […]"}},
  "data": [
    {"smiles": "CN(C)CCNC(=O)c1ccc(-c2ccc(-c3ccc(Cl)cc3)n2-c2ccccc2C(F)(F)F)cc1", "note": "(single isomer, unassigned) [Atropisomer A-2, 4-[5-(4-chlorophenyl)-1-[2-(trifluoromethyl)phenyl]pyrrol-2-yl]-N-[2-(dimethylamino)ethyl]benzamide]", "values": [
      {"measurement": "% ee of sample @ 40° C.", "setting": "[1]; 0 h", "value": 97.20, "unit": "% ee"},
      {"measurement": "% ee of sample @ 40° C.", "setting": "[1]; 24 h", "value": 97.34, "unit": "% ee"},
      {"measurement": "% ee of sample @ 40° C.", "setting": "[1]; 48 h", "value": 97.30, "unit": "% ee"},
      {"measurement": "% ee of sample @ 40° C.", "setting": "[1]; 72 h", "value": 97.24, "unit": "% ee"},
      {"measurement": "% ee of sample @ 40° C.", "setting": "[1]; 96 h", "value": 97.14, "unit": "% ee"},
      {"measurement": "% ee of sample @ 40° C.", "setting": "[1]; 10 days", "value": 97.46, "unit": "% ee"},
      {"measurement": "% ee sample @ 80° C.", "setting": "[1]; 0 h", "value": 97.20, "unit": "% ee"},
      {"measurement": "% ee sample @ 80° C.", "setting": "[1]; 24 h", "value": 95.62, "unit": "% ee"},
      {"measurement": "% ee sample @ 80° C.", "setting": "[1]; 96 h", "value": 96.62, "unit": "% ee"},
      {"measurement": "% ee sample @ 80° C.", "setting": "[1]; 10 days", "value": 97.12, "unit": "% ee"},
      {"measurement": "atropisomer classification (LaPlante)", "setting": "[1]; from stability of isolated atropisomers", "value": "Class 3"},
      {"measurement": "interconversion / racemization of atropisomers on heating", "setting": "[1]; heating for 10 days at 40° C. and 80° C.", "value": "no interconversion was observed"},
      {"measurement": "remaining binding at 3 µM", "setting": "PLK1 catalytic domain", "value": 97, "unit": "%"}
    ]}
  ]
}
